Test results reported in patent US9587266B2, “Mutant luciferases” (University of Massachusetts, priority 2011, dated 2017).

Assays:
Assay type in all cases: biochemical
R218K + L342A luciferase = biological target: T1, R218K + L342A luciferase (Photinus pyralis, UniProt P08659, L342A/R218K)
T1 construct: The full firefly (Photinus pyralis) luciferase gene was PCR amplified from pGL3 (Promega); GST (N, cleaved yes); made in house; host or cells: E. coli JM109
Method: (§1) Purified mutant luciferases were used in bioluminescence emission and burst kinetics scans. Each purified protein in 20 mM Tris pH 7.6, 0.1 mM EDTA, 1 mM TCEP and 0.4 mg/mL BSA was added to 2× substrate in 20 mM Tris pH 7.6, 0.1 mM EDTA, 8 mM MgSO4, 4 mM ATP, and 1 mM TCEP in a cuvette.
(§2) Luciferase was rapidly injected into a cuvette containing substrate, and the emission from 400-800 nm was recorded in a SPEX FluoroMax-3 fluorimeter with closed excitation slits.

WT luciferase = biological target: T2, WT luciferase (Photinus pyralis, UniProt P08659)
T2 construct: The full firefly (Photinus pyralis) luciferase gene was PCR amplified from pGL3 (Promega); GST (N, cleaved yes); made in house; host or cells: E. coli JM109
T2 sequence (P08659 whole entry): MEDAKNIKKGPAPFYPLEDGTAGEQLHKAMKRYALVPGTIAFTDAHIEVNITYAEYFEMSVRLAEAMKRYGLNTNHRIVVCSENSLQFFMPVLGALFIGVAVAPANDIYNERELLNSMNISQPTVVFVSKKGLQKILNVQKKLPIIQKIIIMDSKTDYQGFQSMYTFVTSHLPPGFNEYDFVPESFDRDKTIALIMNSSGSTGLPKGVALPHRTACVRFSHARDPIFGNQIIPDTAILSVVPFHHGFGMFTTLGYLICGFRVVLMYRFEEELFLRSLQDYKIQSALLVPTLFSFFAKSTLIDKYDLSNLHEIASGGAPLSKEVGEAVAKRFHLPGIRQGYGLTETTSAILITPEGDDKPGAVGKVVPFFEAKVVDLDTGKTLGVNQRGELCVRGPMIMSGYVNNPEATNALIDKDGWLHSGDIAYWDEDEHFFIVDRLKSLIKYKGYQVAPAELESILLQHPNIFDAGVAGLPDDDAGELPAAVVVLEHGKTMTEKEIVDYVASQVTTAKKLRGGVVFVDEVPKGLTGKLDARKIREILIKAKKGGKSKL
Method: as §1, §2

F247L L286M luciferase = biological target: T3, F247L L286M luciferase (Photinus pyralis, UniProt P08659, F247L/L286M); test: Bioluminescence emission scan
T3 construct: The full firefly (Photinus pyralis) luciferase gene was PCR amplified from pGL3 (Promega); GST (N, cleaved yes); made in house; host or cells: E. coli JM109
T3 sequence (P08659 whole entry F247L/L286M): as the sequence (P08659 whole entry) above, with F247L, L286M counted along it
Method: (§3) Purified mutant luciferases were used in bioluminescence emission and burst kinetics scans.
as §2

F247V luciferase = biological target: T4, F247V luciferase (Photinus pyralis, UniProt P08659, F247V); test: Bioluminescence emission scan
T4 construct: The full firefly (Photinus pyralis) luciferase gene was PCR amplified from pGL3 (Promega); GST (N, cleaved yes); made in house; host or cells: E. coli JM109
T4 sequence (P08659 whole entry F247V): as the sequence (P08659 whole entry) above, with F247V counted along it
Method: as §3, §2

L342A luciferase = biological target: T5, L342A luciferase (Photinus pyralis, UniProt P08659, L342A); test: Bioluminescence emission scan
T5 construct: The full firefly (Photinus pyralis) luciferase gene was PCR amplified from pGL3 (Promega); GST (N, cleaved yes); made in house; host or cells: E. coli JM109
T5 sequence (P08659 whole entry L342A): as the sequence (P08659 whole entry) above, with L342A counted along it
Method: as §3, §2

S347A luciferase = biological target: T6, S347A luciferase (Photinus pyralis, UniProt P08659, S347A); test: Bioluminescence emission scan
T6 construct: The full firefly (Photinus pyralis) luciferase gene was PCR amplified from pGL3 (Promega); GST (N, cleaved yes); made in house; host or cells: E. coli JM109
T6 sequence (P08659 whole entry S347A): as the sequence (P08659 whole entry) above, with S347A counted along it
Method: as §3, §2

S347T luciferase = biological target: T7, S347T luciferase (Photinus pyralis, UniProt P08659, S347T); test: Bioluminescence emission scan
T7 construct: The full firefly (Photinus pyralis) luciferase gene was PCR amplified from pGL3 (Promega); GST (N, cleaved yes); made in house; host or cells: E. coli JM109
T7 sequence (P08659 whole entry S347T): as the sequence (P08659 whole entry) above, with S347T counted along it
Method: as §3, §2

T1 sequence (P08659 whole entry R218K/L342A): as the sequence (P08659 whole entry) above, with R218K, L342A counted along it

Question: With `O=C(O)[C@H]1CSC(c2nc3cc4c(cc3s2)NCC4)=N1` [CycLuc1] as the molecule, how does the “Maximum Emission Wavelength of Selected Substrate” value (R218K + L342A luciferase) read?
Answer: 604 nm

Question: And the “Wavelength at Max. Emission” value (WT luciferase; Table 2)?
Answer: 601 nm

Question: What about the “Maximum Emission Wavelength of Selected Substrate” value (WT luciferase; Table 3) of the same molecule?
Answer: 601 nm

Question: What about the “Wavelength at Max. Emission” value (F247L L286M luciferase) of the same molecule?
Answer: 603 nm

Question: What about the “Wavelength at Max. Emission” value (F247V luciferase) of the same molecule?
Answer: 603 nm

Question: What about the “Maximum Emission Wavelength of Selected Substrate” value (L342A luciferase) of the same molecule?
Answer: 597 nm

Question: And the “Wavelength at Max. Emission” value (S347A luciferase)?
Answer: 597 nm

Question: And the “Wavelength at Max. Emission” value (S347T luciferase)?
Answer: 601 nm
